Results taken from PubChem BioAssay (NCI).
Values joined by “and” are separate entries in the source; they are usually repeats but may differ in a detail not shown here. Equal values may be shown once.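 Compound exposure: 48 hours, 5 concentrations, 96-well plates. At the GI50, growth is halved. Definition used: TGI = concentration required for complete inhibition of growth.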

How the values were obtained:
Test in all cases: growth of human tumour cells (NCI), 48 h
[1] = test system: HT29 colon
[2] = test system: LOX IMVI melanoma
[3] = test system: M14 melanoma
[4] = test system: RPMI-8226 leukemia
[5] = test system: U251 CNS
[6] = test system: A549 NSCLC
[7] = test system: NCI/ADR-RES ovarian
[8] = test system: KM12 colon
[9] = test system: ACHN renal
[10] = test system: SW-620 colon

`O=C1c2ccccc2-c2c1c1ccccc1c(=O)n2CCNCCNCCn1c2c(c3ccccc3c1=O)C(=O)c1ccccc1-2` was tested, and the GI50 [1] was 0.017 µM, the TGI [1] was over 100 µM and the GI50 [2] was 0.0437 µM. It also gave a TGI [2] of 1.76 µM, a GI50 [3] of 2.58 µM and a TGI [3] of 33.4 µM. For the same compound, the GI50 [4] was 0.011 µM, the TGI [4] was 1.24 µM and the GI50 [5] was 0.0382 µM. For the same compound, the TGI [5] was 1.59 µM, the GI50 [6] was 0.231 µM and the TGI [6] was over 38.2 µM. The GI50 [7] was 1.11 µM, the TGI [7] was 11.1 µM and the GI50 [8] was 0.0327 µM. For the same compound, the TGI [8] was 1.72 µM, the GI50 [9] was 0.0217 µM and the TGI [9] was 17 µM. The GI50 [10] was 0.0296 µM and the TGI [10] was 1.93 µM.

With `COc1ccc(-c2nc(-c3cn(C)c4ncccc34)cs2)cc1` the GI50 [1] was 17.3 µM, the TGI [1] was over 100 µM and the GI50 [2] was 54.1 µM. The TGI [2] was over 100 µM, the GI50 [3] was 28.2 µM and the TGI [3] was over 100 µM. The GI50 [4] was 37.1 µM, the TGI [4] was over 100 µM and the GI50 [5] was 78.5 µM. For the same compound, the TGI [5] was over 100 µM, the GI50 [6] was 76.1 µM and the TGI [6] was over 100 µM. The GI50 [7] was 11.9 µM, the TGI [7] was over 100 µM and the GI50 [8] was 8.01 µM. The TGI [8] was over 100 µM, the GI50 [9] was 91.7 µM and the TGI [9] was over 100 µM. The GI50 [10] was 19.3 µM and the TGI [10] was over 100 µM.

`C[C@]12CCC(=O)C(O)=C1CC[C@@H]1[C@@H]2CC[C@]2(C)C(=O)CC[C@@H]12` showed a TGI [1] of over 100 µM, a TGI [2] of over 100 µM and a TGI [3] of over 100 µM. For the same compound, the TGI [4] was over 100 µM, the TGI [5] was over 100 µM and the TGI [6] was over 100 µM. The TGI [7] was over 100 µM, the TGI [8] was over 100 µM and the TGI [9] was over 100 µM. The TGI [10] was over 100 µM.

With `CNC(=O)c1cccc(-c2ccc3c(N4CCOC[C@@H]4C)nc(N4CCOC[C@@H]4C)nc3n2)c1` the GI50 [1] was 0.144 µM and 0.355 µM and 0.323 µM, the TGI [1] was over 100 µM and the GI50 [2] was 0.113 µM and 0.217 µM and 0.228 µM. The TGI [2] was 5.24 µM and > 4.47 µM and > 43.9 µM, the GI50 [3] was 0.047 µM and 0.177 µM and 0.133 µM and the TGI [3] was 44.5 µM and > 6.82 µM and 14.9 µM. The GI50 [4] was 0.0486 µM and 0.0473 µM and 0.0363 µM, the GI50 [5] was 0.236 µM and 0.422 µM and 0.176 µM and the TGI [5] was over 100 µM. For the same compound, the GI50 [6] was 0.124 µM and 0.242 µM and 0.142 µM, the TGI [6] was > 100 µM and > 10 µM and 11.5 µM and the GI50 [7] was 0.24 µM and 0.412 µM and 0.371 µM. For the same compound, the TGI [7] was 3.56 µM and 5.12 µM and > 25.1 µM, the GI50 [8] was 0.0947 µM and 0.273 µM and 0.179 µM and the TGI [8] was over 100 µM. The GI50 [9] was 0.095 µM and 0.115 µM and 0.119 µM, the TGI [9] was over 100 µM and the GI50 [10] was 0.26 µM and 0.356 µM and 0.293 µM. The TGI [10] was over 100 µM.

Compound `O=C(NC(=S)Nc1ccc(Cl)cc1)c1ccccc1` has a GI50 [1] of over 100 µM, a TGI [1] of over 100 µM and a GI50 [2] of over 100 µM. For the same compound, the TGI [2] was over 100 µM, the GI50 [3] was over 100 µM and the TGI [3] was over 100 µM. For the same compound, the GI50 [4] was over 100 µM, the TGI [4] was over 100 µM and the GI50 [5] was over 77.2 µM. The TGI [5] was over 100 µM, the GI50 [6] was over 100 µM and the TGI [6] was over 100 µM. For the same compound, the GI50 [7] was over 100 µM, the TGI [7] was over 100 µM and the GI50 [8] was over 100 µM. For the same compound, the TGI [8] was over 100 µM, the GI50 [9] was over 100 µM and the TGI [9] was over 100 µM. It also gave a GI50 [10] of over 100 µM and a TGI [10] of over 100 µM.

`C=C1C(=O)O[C@H]2[C@H]1CC/C(Cn1cc(-c3ccccc3)nn1)=C\CC[C@@]1(C)O[C@@H]21` was tested, and the GI50 [1] was 1.79 µM, the TGI [1] was 6.3 µM and the GI50 [2] was 0.808 µM. The TGI [2] was 1.69 µM, the GI50 [3] was 1.78 µM and the TGI [3] was 7.6 µM. The GI50 [4] was 1.71 µM, the TGI [4] was 11.1 µM and the GI50 [5] was 7.96 µM. For the same compound, the TGI [5] was 15.4 µM, the GI50 [6] was 5.88 µM and the TGI [6] was 13.8 µM. The GI50 [7] was 6.17 µM, the TGI [7] was 13.7 µM and the GI50 [8] was 8.48 µM. The TGI [8] was 18.7 µM, the GI50 [9] was 0.941 µM and the TGI [9] was 2.46 µM. The GI50 [10] was 1.5 µM and the TGI [10] was 6.43 µM.

`Cc1cc2c(F)c(Oc3ncnn4cc(OC[C@@H](C)OC(=O)[C@H](C)N)c(C)c34)ccc2[nH]1` gave a GI50 [1] of 5.73 µM, a TGI [1] of 18.9 µM and a GI50 [2] of 3.75 µM. The TGI [2] was 18.1 µM, the GI50 [3] was 12.3 µM and the TGI [3] was 25.7 µM. For the same compound, the GI50 [4] was 5.94 µM, the TGI [4] was 23.7 µM and the GI50 [5] was 4.22 µM. For the same compound, the TGI [5] was 18.5 µM, the GI50 [6] was 8.86 µM and the TGI [6] was 23.3 µM. The GI50 [7] was 9.79 µM, the TGI [7] was 30.2 µM and the GI50 [8] was 7.68 µM. It also gave a TGI [8] of 20.5 µM, a GI50 [9] of 8.85 µM and a TGI [9] of 21.5 µM. For the same compound, the GI50 [10] was 6.33 µM and the TGI [10] was 19.7 µM.

Work on `C=C1C(=O)OC2CC3(CO3)C3C(O)C(O)CC3(C)CC12` (centres undefined) yielded a TGI [1] of over 100 µM, a TGI [2] of 23.5 µM and a TGI [3] of 36.7 µM. For the same compound, the TGI [4] was over 100 µM, the TGI [5] was over 100 µM and the TGI [6] was over 100 µM. It also gave a TGI [7] of over 100 µM, a TGI [8] of over 100 µM and a TGI [9] of 35.5 µM. The TGI [10] was 32.3 µM.

Compound `CCOC(CN=c1nc(N(C)C)ss1)OCC` has a TGI [1] of 17.5 µM, a TGI [2] of 31.2 µM and a TGI [3] of 35.5 µM. It also gave a TGI [4] of 8.54 µM, a TGI [5] of 29.9 µM and a TGI [6] of over 100 µM. The TGI [7] was over 100 µM, the TGI [8] was 38.9 µM and the TGI [9] was 58.7 µM. It also gave a TGI [10] of 25.9 µM.

Work on `Cn1c(=O)c2[nH]c(CS(=O)(=O)Cc3nc4c([nH]3)c(=O)n(C)c(=O)n4C)nc2n(C)c1=O` yielded a TGI [1] of over 100 µM, a TGI [2] of over 100 µM and a TGI [3] of over 100 µM. For the same compound, the TGI [4] was over 100 µM, the TGI [5] was over 100 µM and the TGI [6] was over 100 µM. The TGI [7] was over 100 µM, the TGI [8] was over 100 µM and the TGI [9] was over 100 µM. For the same compound, the TGI [10] was over 100 µM.

Work on `Cc1[nH]c(/C=C2\C(=O)Nc3ccc(F)cc32)c(C)c1C(=O)NC[C@H](O)CN1CCOCC1` yielded a GI50 [1] of 2.91 µM, a TGI [1] of over 10 µM and a GI50 [2] of 2.33 µM. It also gave a TGI [2] of over 10 µM, a GI50 [3] of 0.943 µM and a TGI [3] of over 10 µM. It also gave a GI50 [4] of 3.54 µM, a TGI [4] of over 10 µM and a GI50 [5] of 6.65 µM. For the same compound, the TGI [5] was over 10 µM, the GI50 [6] was 6.02 µM and the TGI [6] was over 10 µM. The GI50 [7] was over 10 µM, the TGI [7] was over 10 µM and the GI50 [8] was 0.0691 µM. For the same compound, the TGI [8] was over 10 µM, the GI50 [9] was 3.49 µM and the TGI [9] was over 10 µM. The GI50 [10] was 2.3 µM and the TGI [10] was over 10 µM.
